Measured values: ChEMBL document CHEMBL3102800, “Discovery and optimization of N-(3-(1,3-dioxo-2,3-dihydro-1H-pyrrolo[3,4-c]pyridin-4-yloxy)phenyl)benzenesulfonamides as novel GPR119 agonists” (Bioorg Med Chem Lett, 2014)

Key:
[1] = target: T1, Glucose-dependent insulinotropic receptor (Homo sapiens, UniProt Q8TDV5); assay: Agonist activity at human GPR119 expressed in HEK293 cells assessed as cAMP accumulation after 30 mins; assay type: functional, cell-based
T1 sequence (Q8TDV5 whole entry): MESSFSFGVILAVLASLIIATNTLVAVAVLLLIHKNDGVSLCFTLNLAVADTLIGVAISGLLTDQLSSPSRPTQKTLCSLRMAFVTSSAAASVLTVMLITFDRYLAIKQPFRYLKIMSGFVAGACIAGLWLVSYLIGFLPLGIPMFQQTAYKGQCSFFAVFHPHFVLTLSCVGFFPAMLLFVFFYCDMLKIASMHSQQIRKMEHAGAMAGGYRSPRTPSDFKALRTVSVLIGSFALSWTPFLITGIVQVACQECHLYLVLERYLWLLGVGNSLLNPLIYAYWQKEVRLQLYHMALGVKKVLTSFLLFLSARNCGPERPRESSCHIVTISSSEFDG

[2] = Intrinsic clearance in rat liver microsomes; assay type: ADME; conditions: read-out: CLH
[3] = target: T2, Glucose-dependent insulinotropic receptor (Homo sapiens) (UniProt Q8TDV5); assay: Agonist activity at human GPR119 expressed in HEK293 cells assessed as cAMP accumulation after 30 mins relative to isopropyl 4-(1-(4-(methylsulfonyl)phenyl)-1H-pyrazolo[3,4-d]pyrimidin-4-yloxy)piperidine-1-carboxylate; assay type: functional, cell-based
T2 sequence (whole entry): T1 sequence (Q8TDV5 whole entry)

[4] = target: T3, Glucose-dependent insulinotropic receptor (Rattus norvegicus, UniProt Q7TQN8); assay: Agonist activity at rat GPR119 assessed as cAMP accumulation; assay type: functional
T3 sequence (Q7TQN8 whole entry): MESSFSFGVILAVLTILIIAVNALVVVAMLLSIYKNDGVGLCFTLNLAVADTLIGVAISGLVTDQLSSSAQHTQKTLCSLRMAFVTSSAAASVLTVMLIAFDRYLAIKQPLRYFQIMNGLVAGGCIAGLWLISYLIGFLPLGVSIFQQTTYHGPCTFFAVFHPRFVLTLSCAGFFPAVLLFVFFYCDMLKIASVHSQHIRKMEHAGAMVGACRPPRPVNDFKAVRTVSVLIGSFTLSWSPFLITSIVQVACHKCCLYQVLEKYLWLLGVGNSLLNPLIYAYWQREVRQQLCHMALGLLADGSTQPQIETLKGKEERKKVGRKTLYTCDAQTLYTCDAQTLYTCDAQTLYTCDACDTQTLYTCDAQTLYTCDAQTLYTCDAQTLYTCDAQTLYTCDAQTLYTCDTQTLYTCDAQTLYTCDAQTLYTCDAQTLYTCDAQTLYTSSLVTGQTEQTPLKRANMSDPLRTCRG

[5] = target: T4, Glucose-dependent insulinotropic receptor (Mus musculus, UniProt Q7TQP3); assay: Agonist activity at mouse GPR119 assessed as cAMP accumulation; assay type: functional
T4 sequence (Q7TQP3 whole entry): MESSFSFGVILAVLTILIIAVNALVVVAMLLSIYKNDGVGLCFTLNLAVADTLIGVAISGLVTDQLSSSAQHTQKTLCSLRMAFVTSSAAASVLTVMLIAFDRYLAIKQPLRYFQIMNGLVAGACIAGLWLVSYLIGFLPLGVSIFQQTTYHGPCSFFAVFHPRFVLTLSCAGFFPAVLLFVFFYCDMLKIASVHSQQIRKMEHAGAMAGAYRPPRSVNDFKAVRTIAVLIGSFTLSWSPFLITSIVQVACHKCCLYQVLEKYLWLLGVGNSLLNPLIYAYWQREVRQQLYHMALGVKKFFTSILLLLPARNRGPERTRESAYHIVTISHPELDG

[6] = Plasma protein binding in cynomolgus monkey; assay type: ADME, cell-free, Macaca fascicularis; conditions: read-out: PPB
Bile salt export pump = Bile salt export pump (Homo sapiens, UniProt O95342); assay: Binding affinity to BSEP (unknown origin)
Bile salt export pump, sequence (O95342 whole entry): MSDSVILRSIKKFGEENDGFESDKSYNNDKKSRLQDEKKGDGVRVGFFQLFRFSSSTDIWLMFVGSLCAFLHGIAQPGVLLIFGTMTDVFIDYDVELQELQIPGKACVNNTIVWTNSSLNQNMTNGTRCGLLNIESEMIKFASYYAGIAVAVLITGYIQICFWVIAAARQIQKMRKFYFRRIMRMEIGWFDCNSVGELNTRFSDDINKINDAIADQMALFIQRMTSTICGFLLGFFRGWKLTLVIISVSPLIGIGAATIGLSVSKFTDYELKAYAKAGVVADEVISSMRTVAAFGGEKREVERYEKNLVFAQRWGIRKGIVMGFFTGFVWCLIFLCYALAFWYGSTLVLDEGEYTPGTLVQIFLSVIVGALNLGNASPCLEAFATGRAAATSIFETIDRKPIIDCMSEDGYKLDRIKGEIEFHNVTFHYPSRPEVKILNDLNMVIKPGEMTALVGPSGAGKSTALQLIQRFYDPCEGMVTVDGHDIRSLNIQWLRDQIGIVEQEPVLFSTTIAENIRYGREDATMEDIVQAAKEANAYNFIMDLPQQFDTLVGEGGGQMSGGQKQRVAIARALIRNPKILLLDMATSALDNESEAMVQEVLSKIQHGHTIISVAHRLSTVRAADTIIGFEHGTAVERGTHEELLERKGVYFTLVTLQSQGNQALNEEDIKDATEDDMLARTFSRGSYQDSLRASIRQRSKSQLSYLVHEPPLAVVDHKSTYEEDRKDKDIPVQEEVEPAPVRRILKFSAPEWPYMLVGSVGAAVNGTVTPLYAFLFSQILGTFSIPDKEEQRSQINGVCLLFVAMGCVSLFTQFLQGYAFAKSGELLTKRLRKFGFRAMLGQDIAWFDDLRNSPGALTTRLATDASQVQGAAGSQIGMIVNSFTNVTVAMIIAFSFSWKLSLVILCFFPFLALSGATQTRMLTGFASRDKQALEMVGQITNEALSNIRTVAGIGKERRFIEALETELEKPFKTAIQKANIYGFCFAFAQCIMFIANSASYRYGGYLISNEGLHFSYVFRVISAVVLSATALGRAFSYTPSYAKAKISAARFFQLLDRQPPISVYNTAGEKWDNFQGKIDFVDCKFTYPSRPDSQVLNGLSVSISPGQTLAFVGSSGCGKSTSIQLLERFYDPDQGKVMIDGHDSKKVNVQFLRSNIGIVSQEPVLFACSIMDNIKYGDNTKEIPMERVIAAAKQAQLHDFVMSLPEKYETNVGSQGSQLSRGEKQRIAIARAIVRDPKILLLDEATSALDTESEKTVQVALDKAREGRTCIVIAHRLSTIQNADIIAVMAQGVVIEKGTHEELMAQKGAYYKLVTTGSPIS

[7] = Plasma protein binding in human; assay type: ADME, cell-free; conditions: read-out: PPB
[8] = Inhibition of Cytochrome P450 (unknown origin); assay type: ADME; conditions: human
[9] = target: T5, Nuclear receptor subfamily 1 group I member 2 (Homo sapiens, UniProt O75469); assay: Activation of human PXR
T5 sequence (O75469 whole entry): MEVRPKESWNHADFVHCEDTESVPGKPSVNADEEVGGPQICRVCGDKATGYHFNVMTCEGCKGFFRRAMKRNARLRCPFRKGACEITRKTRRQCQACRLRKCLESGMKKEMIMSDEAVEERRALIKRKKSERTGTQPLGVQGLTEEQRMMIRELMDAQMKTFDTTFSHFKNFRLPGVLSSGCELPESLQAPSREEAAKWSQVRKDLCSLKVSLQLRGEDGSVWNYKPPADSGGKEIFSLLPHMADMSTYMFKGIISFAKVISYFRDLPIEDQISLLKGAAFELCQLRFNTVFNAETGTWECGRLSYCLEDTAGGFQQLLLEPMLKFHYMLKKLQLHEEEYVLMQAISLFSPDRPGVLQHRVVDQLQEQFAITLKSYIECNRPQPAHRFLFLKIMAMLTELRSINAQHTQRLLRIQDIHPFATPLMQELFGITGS

[10] = Oral bioavailability in cynomolgus monkey at 2 mg/kg; assay type: ADME, organism-based, Macaca fascicularis; conditions: in vivo
[11] = Volume of distribution at steady state in cynomolgus monkey at 0.5 mg/kg, iv; assay type: ADME, organism-based, Macaca fascicularis; parameters: dose 0.5 mg/kg, route intravenous; conditions: in vivo, read-out: Vdss
[12] = Half life in cynomolgus monkey at 0.5 mg/kg, iv; assay type: ADME, organism-based, Macaca fascicularis; parameters: dose 0.5 mg/kg, route intravenous; conditions: in vivo
[13] = Clearance in cynomolgus monkey at 0.5 mg/kg, iv; assay type: ADME, organism-based, Macaca fascicularis; parameters: dose 0.5 mg/kg, route intravenous; conditions: in vivo
[14] = Oral bioavailability in rat at 2 mg/kg; assay type: ADME, organism-based; conditions: in vivo
[15] = Volume of distribution at steady state in rat at 0.5 mg/kg, iv; assay type: ADME, organism-based; parameters: dose 0.5 mg/kg, route intravenous; conditions: in vivo, read-out: Vdss
[16] = Half life in rat at 0.5 mg/kg, iv; assay type: ADME, organism-based; parameters: dose 0.5 mg/kg, route intravenous; conditions: in vivo
[17] = Clearance in rat at 0.5 mg/kg, iv; assay type: ADME, organism-based; parameters: dose 0.5 mg/kg, route intravenous; conditions: in vivo
[18] = Metabolic stability in human liver microsomes assessed as compound remaining at 1 uM after 30 mins; assay type: ADME; conditions: read-out: Stability
[19] = Intrinsic clearance in human liver microsomes at 1 uM after 30 mins; assay type: ADME; conditions: read-out: CLH
[20] = target: T6, G-protein coupled receptor 119 (Macaca fascicularis) (UniProt G7Q3P2); assay: Agonist activity at cynomolgus monkey GPR119 assessed as cAMP accumulation relative to control; assay type: functional
T6 sequence (whole entry): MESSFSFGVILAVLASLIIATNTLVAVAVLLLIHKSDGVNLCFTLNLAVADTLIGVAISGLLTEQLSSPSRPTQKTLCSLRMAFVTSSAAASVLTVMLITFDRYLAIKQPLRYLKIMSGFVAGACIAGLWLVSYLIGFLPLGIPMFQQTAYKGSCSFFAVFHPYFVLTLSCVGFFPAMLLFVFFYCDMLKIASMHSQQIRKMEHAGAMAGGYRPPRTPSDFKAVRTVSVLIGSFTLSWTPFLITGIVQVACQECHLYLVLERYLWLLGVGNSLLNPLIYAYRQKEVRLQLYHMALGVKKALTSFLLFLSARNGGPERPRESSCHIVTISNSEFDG

[21] = target: T7, G-protein coupled receptor 119 (Macaca fascicularis, UniProt G7Q3P2); assay: Agonist activity at cynomolgus monkey GPR119 assessed as cAMP accumulation; assay type: functional
T7 sequence (G7Q3P2 whole entry): T6 sequence (whole entry)

[22] = Intrinsic clearance in human liver microsomes; assay type: ADME; conditions: read-out: CLH
[23] = Clearance in iv dosed rat; assay type: ADME, organism-based; conditions: in vivo
[24] = Metabolic stability in rat liver microsomes assessed as compound remaining at 1 uM after 30 mins; assay type: ADME; conditions: read-out: Stability

SMILES	EC50 [1] [nM]	microsomal CLint [2] [µL/min/mg]	Efficacy [3] [%]	further results
Cc1cc2c(c(Oc3cccc(NS(=O)(=O)c4ccc(Cl)cc4)c3F)n1)C(=O)N(C(C)C)C2=O	493	–	–	–
Cc1cc2c(c(Oc3ccc(C)c(NS(=O)(=O)c4ccc(Cl)cc4)c3)n1)C(=O)N(C(C)C)C2=O	9	131	–	–
Cc1cc2c(c(Oc3cccc(NS(=O)(=O)c4ccc(Cl)cc4)c3)n1)C(=O)NC2=O	121	–	109	–
Cc1cc2c(c(Oc3cc(NS(=O)(=O)c4ccc(Cl)cc4)ccc3F)n1)C(=O)N(C(C)C)C2=O	16	84	–	EC50 [4]: 2050 nM; EC50 [5]: 1900 nM; fraction unbound [6]: < 0.01; Activity (Bile salt export pump): Not Active; fraction unbound [7]: < 0.01; inhibition (INH) [8]: Not Active; Activity [9]: Not Active; bioavailability [10]: 29%; Vd [11]: 1.1 L/kg; half-life [12]: 5.6 h; clearance [13]: 7.5 mL/min/kg; bioavailability [14]: 95%; Vd [15]: 1.5 L/kg; half-life [16]: 1.5 h; clearance [17]: 11.8 mL/min/kg; remaining at 0.5 h, 1 µM [18]: 88%; microsomal CLint at 1 µM [19]: 29 µL/min/mg; Efficacy [20]: 102%; EC50 [21]: 73 nM
Cc1cc2c(c(Oc3cccc(NS(=O)(=O)c4ccc(Cl)cc4)c3)n1)C(=O)N(C1CCCC1)C2=O	69	–	95	–
Cc1cc2c(c(Oc3cccc(NS(=O)(=O)c4ccc(Cl)cc4)c3)n1)C(=O)N(C)C2=O	23	–	122	–
O=C1c2cc(C3CC3)nc(Oc3cccc(NS(=O)(=O)c4ccc(Cl)cc4)c3)c2C(=O)N1C1CC1	45	63	99	microsomal CLint [22]: 27 µL/min/mg
Cc1cc2c(c(Oc3cccc(S(=O)(=O)Nc4ccc(Cl)cc4)c3)n1)C(=O)N(C(C)C)C2=O	238	–	–	–
Cc1cc2c(c(Sc3cccc(NS(=O)(=O)c4ccc(Cl)cc4)c3)n1)C(=O)N(C(C)C)C2=O	19	–	76	–
Cc1cc2c(c(Oc3cccc(NS(=O)(=O)c4ccc(Cl)cc4)c3)n1)C(=O)N(C1CC1)C2=O	15	–	111	–
COc1cc2c(c(Oc3cccc(NS(=O)(=O)c4ccc(Cl)cc4)c3)n1)C(=O)N(C1CC1)C2=O	19	–	97	–
Cc1cc2c(c(Oc3cccc(NS(=O)(=O)c4ccc(Cl)cc4)c3)n1)C(=O)N(c1ccccc1)C2=O	299	–	102	–
CCN1C(=O)c2cc(C)nc(Oc3cccc(NS(=O)(=O)c4ccc(Cl)cc4)c3)c2C1=O	11	–	120	–
Cc1cc2c(c(Sc3ccc(C)c(NS(=O)(=O)c4ccc(Cl)cc4)c3)n1)C(=O)N(C(C)C)C2=O	224	–	85	–
Cc1cc2c(c(Nc3ccc(C)c(NS(=O)(=O)c4ccc(Cl)cc4)c3)n1)C(=O)N(C(C)C)C2=O	382	–	81	–
CC(C)OC(=O)N1CCC(Oc2ncnc3c2cnn3-c2ccc(S(C)(=O)=O)cc2)CC1	41	–	–	–
Cc1cc2c(c(Oc3cccc(NC(=O)c4ccc(Cl)cc4)c3)n1)C(=O)N(C(C)C)C2=O	> 30000	40	–	–
Cc1cc2c(c(Oc3cc(NS(=O)(=O)c4ccc(Cl)cc4)ccc3Cl)n1)C(=O)N(C(C)C)C2=O	33	29	–	clearance [23]: 3.67 mL/min/kg
Cc1cc2c(c(Oc3cccc(N(C)S(=O)(=O)c4ccc(Cl)cc4)c3)n1)C(=O)N(C(C)C)C2=O	11	> 400	–	–
Cc1cc2c(c(Oc3cc(F)cc(NS(=O)(=O)c4ccc(Cl)cc4)c3)n1)C(=O)N(C(C)C)C2=O	357	–	–	–
Cc1cc2c(c(Oc3cccc(NS(=O)(=O)c4ccc(Cl)cc4)c3)n1)C(=O)N(C(C)C)C2=O	13	250	99	remaining at 0.5 h, 1 µM [24]: 15%; clearance [23]: 80 mL/min/kg
